{"source": "the supplement of paper PMC10307832", "assay_in_all_cases": "relative viability (nuclei count vs DMSO), 5 days (fraction); higher = more cells survive", "key": {"[1]": {"compound": "CN1CCN(c2ccc3nc(-c4c(N)c5c(F)cccc5[nH]c4=O)[nH]c3c2)CC1 [Dovitinib] + NC(=O)Nc1cc(-c2cccc(F)c2)sc1C(=O)N[C@H]1CCCNC1 [AZD7762] (partner 0.2 µM)", "method_in_brief": "(§1)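 Dosing by pin tool came one day after lung cancer cell lines were seeded in 1536-well plates, using either one drug or a fixed anchor-drug dose plus five library-drug doses (not always all listed) in √10 steps. After 5 days, nuclei were counted on 4× images. Relative viability is treated-well nuclei count divided by vehicle-well nuclei count, and values are medians of duplicate plates.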"}, "[2]": {"compound": "CN1CCN(c2ccc3nc(-c4c(N)c5c(F)cccc5[nH]c4=O)[nH]c3c2)CC1 [Dovitinib] + Nc1nc2[nH]cc(CCc3ccc(C(=O)N[C@@H](CCC(=O)O)C(=O)O)cc3)c2c(=O)[nH]1 [Pemetrexed] (partner 0.2 µM)", "method_in_brief": "as §1"}, "[3]": {"compound": "CN1CCN(c2ccc3nc(-c4c(N)c5c(F)cccc5[nH]c4=O)[nH]c3c2)CC1 [Dovitinib] + COc1cccc2cc(-c3nc([C@H]4CC[C@H](C(=O)O)CC4)n4ncnc(N)c34)[nH]c12 [OSI-027] (partner 0.5 µM)", "method_in_brief": "as §1"}, "[4]": {"compound": "CN1CCN(c2ccc3nc(-c4c(N)c5c(F)cccc5[nH]c4=O)[nH]c3c2)CC1 [Dovitinib] + COc1cc2c(Oc3ccc(NC(=O)C4(C(=O)Nc5ccc(F)cc5)CC4)cc3F)ccnc2cc1OCCCN1CCOCC1 [Foretinib] (partner 0.25 µM)", "method_in_brief": "as §1"}}}
{"cell line": "HCC-44", "values": [{"measurement": "relative viability", "setting": "[1]; first compound 0.02 µM", "result": 0.979}, {"measurement": "relative viability", "setting": "[1]; first compound 0.06325 µM", "result": 0.97}, {"measurement": "relative viability", "setting": "[1]; first compound 0.2 µM", "result": 1.03}, {"measurement": "relative viability", "setting": "[1]; first compound 0.6325 µM", "result": 0.955}, {"measurement": "relative viability", "setting": "[1]; first compound 2 µM", "result": 0.975}, {"measurement": "relative viability", "setting": "[2]; first compound 0.02 µM", "result": 0.617}, {"measurement": "relative viability", "setting": "[2]; first compound 0.06325 µM", "result": 0.659}, {"measurement": "relative viability", "setting": "[2]; first compound 0.2 µM", "result": 0.685}, {"measurement": "relative viability", "setting": "[2]; first compound 0.6325 µM", "result": 0.687}, {"measurement": "relative viability", "setting": "[2]; first compound 2 µM", "result": 0.586}, {"measurement": "relative viability", "setting": "[3]; first compound 0.02 µM", "result": 0.538}, {"measurement": "relative viability", "setting": "[3]; first compound 0.06325 µM", "result": 0.578}, {"measurement": "relative viability", "setting": "[3]; first compound 0.2 µM", "result": 0.569}, {"measurement": "relative viability", "setting": "[3]; first compound 0.6325 µM", "result": 0.485}, {"measurement": "relative viability", "setting": "[3]; first compound 2 µM", "result": 0.524}]}
{"cell line": "NCI-H2228", "values": [{"measurement": "relative viability", "setting": "[2]; first compound 0.02 µM", "result": 0.258}, {"measurement": "relative viability", "setting": "[2]; first compound 0.06325 µM", "result": 0.344}, {"measurement": "relative viability", "setting": "[2]; first compound 0.2 µM", "result": 0.324}, {"measurement": "relative viability", "setting": "[2]; first compound 0.6325 µM", "result": 0.33}, {"measurement": "relative viability", "setting": "[2]; first compound 2 µM", "result": 0.321}, {"measurement": "relative viability", "setting": "[3]; first compound 0.02 µM", "result": 0.638}, {"measurement": "relative viability", "setting": "[3]; first compound 0.06325 µM", "result": 0.533}, {"measurement": "relative viability", "setting": "[3]; first compound 0.2 µM", "result": 0.512}, {"measurement": "relative viability", "setting": "[3]; first compound 0.6325 µM", "result": 0.681}, {"measurement": "relative viability", "setting": "[3]; first compound 2 µM", "result": 0.635}, {"measurement": "relative viability", "setting": "[4]; first compound 0.02 µM", "result": 0.9}, {"measurement": "relative viability", "setting": "[4]; first compound 0.06325 µM", "result": 0.832}, {"measurement": "relative viability", "setting": "[4]; first compound 0.2 µM", "result": 0.928}, {"measurement": "relative viability", "setting": "[4]; first compound 0.6325 µM", "result": 1.08}, {"measurement": "relative viability", "setting": "[4]; first compound 2 µM", "result": 0.915}]}
{"cell line": "ABC-1", "values": [{"measurement": "relative viability", "setting": "[1]; first compound 0.02 µM", "result": 0.519}, {"measurement": "relative viability", "setting": "[1]; first compound 0.06325 µM", "result": 0.852}, {"measurement": "relative viability", "setting": "[1]; first compound 0.2 µM", "result": 0.735}, {"measurement": "relative viability", "setting": "[1]; first compound 0.6325 µM", "result": 0.536}, {"measurement": "relative viability", "setting": "[1]; first compound 2 µM", "result": 0.698}, {"measurement": "relative viability", "setting": "[3]; first compound 0.02 µM", "result": 0.445}, {"measurement": "relative viability", "setting": "[3]; first compound 0.06325 µM", "result": 0.505}, {"measurement": "relative viability", "setting": "[3]; first compound 0.2 µM", "result": 0.48}, {"measurement": "relative viability", "setting": "[3]; first compound 0.6325 µM", "result": 0.448}, {"measurement": "relative viability", "setting": "[3]; first compound 2 µM", "result": 0.51}, {"measurement": "relative viability", "setting": "[4]; first compound 0.02 µM", "result": 0.899}, {"measurement": "relative viability", "setting": "[4]; first compound 0.06325 µM", "result": 1.05}, {"measurement": "relative viability", "setting": "[4]; first compound 0.2 µM", "result": 1.2}, {"measurement": "relative viability", "setting": "[4]; first compound 0.6325 µM", "result": 1.11}, {"measurement": "relative viability", "setting": "[4]; first compound 2 µM", "result": 1.42}]}
{"cell line": "COR-L23", "values": [{"measurement": "relative viability", "setting": "[2]; first compound 0.02 µM", "result": 0.194}, {"measurement": "relative viability", "setting": "[2]; first compound 0.06325 µM", "result": 0.211}, {"measurement": "relative viability", "setting": "[2]; first compound 0.2 µM", "result": 0.2}, {"measurement": "relative viability", "setting": "[2]; first compound 0.6325 µM", "result": 0.208}, {"measurement": "relative viability", "setting": "[2]; first compound 2 µM", "result": 0.212}, {"measurement": "relative viability", "setting": "[3]; first compound 0.02 µM", "result": 0.681}, {"measurement": "relative viability", "setting": "[3]; first compound 0.06325 µM", "result": 0.856}, {"measurement": "relative viability", "setting": "[3]; first compound 0.2 µM", "result": 0.835}, {"measurement": "relative viability", "setting": "[3]; first compound 0.6325 µM", "result": 0.791}, {"measurement": "relative viability", "setting": "[3]; first compound 2 µM", "result": 0.823}, {"measurement": "relative viability", "setting": "[4]; first compound 0.02 µM", "result": 0.93}, {"measurement": "relative viability", "setting": "[4]; first compound 0.06325 µM", "result": 1}, {"measurement": "relative viability", "setting": "[4]; first compound 0.2 µM", "result": 0.99}, {"measurement": "relative viability", "setting": "[4]; first compound 0.6325 µM", "result": 0.952}, {"measurement": "relative viability", "setting": "[4]; first compound 2 µM", "result": 1.04}]}
{"cell line": "NCI-H661", "values": [{"measurement": "relative viability", "setting": "[2]; first compound 0.02 µM", "result": 0.888}, {"measurement": "relative viability", "setting": "[2]; first compound 0.06325 µM", "result": 0.927}, {"measurement": "relative viability", "setting": "[2]; first compound 0.2 µM", "result": 0.935}, {"measurement": "relative viability", "setting": "[2]; first compound 0.6325 µM", "result": 0.878}, {"measurement": "relative viability", "setting": "[2]; first compound 2 µM", "result": 0.949}, {"measurement": "relative viability", "setting": "[3]; first compound 0.02 µM", "result": 0.689}, {"measurement": "relative viability", "setting": "[3]; first compound 0.06325 µM", "result": 0.706}, {"measurement": "relative viability", "setting": "[3]; first compound 0.2 µM", "result": 0.753}, {"measurement": "relative viability", "setting": "[3]; first compound 0.6325 µM", "result": 0.732}, {"measurement": "relative viability", "setting": "[3]; first compound 2 µM", "result": 0.729}, {"measurement": "relative viability", "setting": "[4]; first compound 0.02 µM", "result": 1.05}, {"measurement": "relative viability", "setting": "[4]; first compound 0.06325 µM", "result": 1}, {"measurement": "relative viability", "setting": "[4]; first compound 0.2 µM", "result": 1.08}, {"measurement": "relative viability", "setting": "[4]; first compound 0.6325 µM", "result": 1.07}, {"measurement": "relative viability", "setting": "[4]; first compound 2 µM", "result": 1.12}]}
